From publication PMC2585982 (Toxicology and applied pharmacology, 2008)

Legend:
PXR = target: T1, PXR (Mus musculus, UniProt O54915); experiment: PXR-DR3 reporter assay; type: cell-based
T1 sequence (O54915 1-431): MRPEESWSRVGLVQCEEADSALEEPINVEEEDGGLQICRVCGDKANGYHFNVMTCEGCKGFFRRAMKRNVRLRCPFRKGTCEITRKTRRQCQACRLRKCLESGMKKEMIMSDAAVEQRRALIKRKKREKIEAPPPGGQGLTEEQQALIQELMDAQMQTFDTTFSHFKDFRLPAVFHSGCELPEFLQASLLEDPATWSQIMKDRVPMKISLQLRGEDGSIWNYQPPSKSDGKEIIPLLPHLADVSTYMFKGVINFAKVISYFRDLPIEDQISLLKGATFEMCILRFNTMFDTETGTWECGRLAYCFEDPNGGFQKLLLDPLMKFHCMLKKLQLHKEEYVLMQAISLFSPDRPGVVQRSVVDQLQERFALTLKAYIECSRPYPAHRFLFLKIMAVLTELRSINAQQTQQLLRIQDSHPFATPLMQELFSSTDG
T1 sequence (P19793 1-462 partner): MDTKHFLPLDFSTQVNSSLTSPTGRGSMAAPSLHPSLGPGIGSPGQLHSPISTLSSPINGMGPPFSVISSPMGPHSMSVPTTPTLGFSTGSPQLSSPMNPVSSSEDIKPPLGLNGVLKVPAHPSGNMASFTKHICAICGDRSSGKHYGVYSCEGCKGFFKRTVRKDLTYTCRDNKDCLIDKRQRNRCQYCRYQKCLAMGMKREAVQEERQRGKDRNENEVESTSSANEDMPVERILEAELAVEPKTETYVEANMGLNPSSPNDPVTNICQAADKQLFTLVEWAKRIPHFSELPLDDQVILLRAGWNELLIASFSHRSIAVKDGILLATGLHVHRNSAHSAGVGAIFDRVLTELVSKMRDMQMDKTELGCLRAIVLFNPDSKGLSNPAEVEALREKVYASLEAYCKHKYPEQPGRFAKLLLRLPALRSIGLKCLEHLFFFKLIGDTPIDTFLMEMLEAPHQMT

GST (DCNB, GST μ) = experiment: Liver cytosolic GST activity, DCNB as substrate, after oral dosing of mice; type: in vivo; settings: C57BL/6 mice, 100 mg/kg p.o. 3 days, vs corn oil

COc1c2ccoc2c(OC)c2oc(=O)ccc12 [isopimpinellin, 5,8-dimethoxypsoralen]
EC50 (PXR): 15.8 µM
Max (concentration to reach maximal effect), PXR-DR3 (PXR; CV-1 cells, full length PXR): 30,000 nM
GST activity using DCNB as a substrate, liver cytosol (GST (DCNB, GST μ)): highest increase
